The record followed here is ChEMBL document CHEMBL1146077, “Synthesis and evaluation of heteroaryl-substituted dihydronaphthalenes and indenes: potent and selective inhibitors of aldosterone synthase (CYP11B2) for the treatment of congestive heart failure and myocardial fibrosis” (J Med Chem, 2006).

In series [1] the target is T1, Cytochrome P450 11B2, mitochondrial (Homo sapiens, UniProt P19099).
T1 sequence (P19099 whole entry): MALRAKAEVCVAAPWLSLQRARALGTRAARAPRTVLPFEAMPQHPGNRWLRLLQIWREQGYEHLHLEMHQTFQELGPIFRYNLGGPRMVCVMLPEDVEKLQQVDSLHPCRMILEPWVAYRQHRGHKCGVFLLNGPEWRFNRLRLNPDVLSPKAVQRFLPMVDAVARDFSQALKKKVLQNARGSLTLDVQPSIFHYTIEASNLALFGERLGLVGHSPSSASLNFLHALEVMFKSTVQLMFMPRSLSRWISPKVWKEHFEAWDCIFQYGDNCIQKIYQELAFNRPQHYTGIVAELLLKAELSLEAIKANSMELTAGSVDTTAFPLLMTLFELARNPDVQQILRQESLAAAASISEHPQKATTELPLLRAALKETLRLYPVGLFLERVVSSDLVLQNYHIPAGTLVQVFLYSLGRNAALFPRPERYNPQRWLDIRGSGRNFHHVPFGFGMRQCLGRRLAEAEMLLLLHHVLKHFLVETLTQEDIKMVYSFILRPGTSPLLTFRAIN
The series is described as follows: Inhibition of human CYP11B2 expressed in Schizosaccharomyces pombe at 500 nM.

Series [2] has as its target T1, Cytochrome P450 11B2, mitochondrial. The series is described as follows: Inhibition of human CYP11B2 expressed in V79 11B2 cells.
The nature of series [3]: Permeability in Caco-2 cell. The following applies: human. (Caco-2 cells form a polarised layer with tight junctions and transporters.)
A short description of series [4]: Half life in rat liver microsome. Type of series: ADME. The following applies: liver microsomes.
The target in series [5] is T2, Cytochrome P450 11B1, mitochondrial (Homo sapiens, UniProt P15538).
T2 sequence (P15538 whole entry): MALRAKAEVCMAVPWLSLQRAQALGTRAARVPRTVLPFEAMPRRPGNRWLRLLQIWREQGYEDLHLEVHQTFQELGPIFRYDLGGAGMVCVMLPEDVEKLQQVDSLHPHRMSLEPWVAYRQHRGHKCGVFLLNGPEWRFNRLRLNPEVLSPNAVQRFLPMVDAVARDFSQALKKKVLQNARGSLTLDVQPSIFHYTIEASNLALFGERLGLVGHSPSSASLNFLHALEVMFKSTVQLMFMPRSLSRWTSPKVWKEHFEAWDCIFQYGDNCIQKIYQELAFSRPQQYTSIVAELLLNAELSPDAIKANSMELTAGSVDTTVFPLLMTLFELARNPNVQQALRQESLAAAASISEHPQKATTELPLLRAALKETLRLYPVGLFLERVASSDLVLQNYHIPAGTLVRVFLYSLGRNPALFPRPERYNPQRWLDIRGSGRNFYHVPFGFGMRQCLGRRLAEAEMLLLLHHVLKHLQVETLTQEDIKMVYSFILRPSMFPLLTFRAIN
The series is described as follows: Inhibition of human CYP11B1 expressed in V79 11B1 cells.

The structures appear in SMILES notation.

One may read the inhibition as the relative decrease from the control value, in per cent. What is called IC50 is the concentration that inhibits the measured activity by half. Low values mean greater potency, high ones weaker potency. `C1=C(n2ccnc2)Cc2ccccc21` showed an inhibition at 0.5 µM in series [1] of 33%. Moreover, in series [2], the IC50 is 448 nM.
By Papp is commonly meant a coefficient for how fast a substance crosses the barrier. A higher Papp goes with ready permeation. The molecule `C[C@]12CC[C@H]3[C@@H](CCC4=CC(=O)CC[C@@]43C)[C@@H]1CC[C@@H]2O` [TESTOSTERONE] displayed a Papp in series [3] of 9.4 ×10⁻⁶ cm/s.
The same measure, in the same setting: next, `CC(C(=O)O)c1cccc(C(=O)c2ccccc2)c1` (stereo not given) [KETOPROFEN]: 25.7 ×10⁻⁶ cm/s.
In series [2], `COc1ccc2c(c1)C=C(c1cccnc1)CC2` gave an IC50 of 45 nM. That is a double-digit nanomolar value.
Consider `C(=C\c1cccnc1)/c1ccccc1`, for which the inhibition at 0.5 µM in series [1] was 25%.
Turning to `C1=C(n2ccnc2)CCc2ccccc21`, the midpoint of inhibition in series [2], the IC50, lay at 334 nM. This counts as sub-micromolar.
As usually defined, the half-life is how long it takes for the measured level to halve. Read a low half-life as rapid decline. With `COc1ccc2c(c1)CCC(c1cccnc1)=C2`, the Papp in series [3] amounted to 13.5 ×10⁻⁶ cm/s. Besides, the inhibition at 0.5 µM in series [1] worked out at 98%. Moreover, the half-life in series [4] was 1.12 h.
In series [2], `COc1ccc2c(c1)CCC(n1ccnc1)=C2` showed a half-inhibitory concentration (IC50) of 411 nM.
In series [1], `COc1ccc2c(c1)CCC(c1ccncc1)=C2` returned an inhibition at 0.5 µM of 15%. Moreover, the IC50 in series [2] came to 2830 nM; in series [5] it was 2530 nM.
The like results for `CCC1CC(c2cccnc2)=Cc2ccccc21` (stereo not given) were, in that order, 20%, 176 nM and 1620 nM.
The matching figures for `C(=C/c1cccnc1)/c1ccccc1`: 54%, 735 nM and 288 nM.
